Non-standard residues stand in square brackets, D forms with d. Residues, ends and D or L forms follow the SMILES beside them. Cya = N[C@@H](CS(=O)(=O)O)C(=O)O; pGlu = O=C1CC[C@@H](C(=O)O)N1
system: mAb 1H11; assay: OSTEOMARK competitive immunoassay testing apparent affinity of synthetic peptides for mAb 1H11; assay type: binding; settings: nanomoles Bone Collagen Equivalents equivalent to 1 μg peptide; back fit into OSTEOMARK standard curve; values between 0.5 and 1 OD averaged
Text: Generally, a milligram per mL solution of the peptide was made in PBS. The absorbence at A280 was read and the concentration confirmed. Dilutions of the peptide were then made in a buffer such as OSTEOMARK (TM) calibrator diluent (OSTEOMARK Assay, Ostex International, Seattle, Wash.). Working strength concentrations were between 10 and 0.01 micrograms per milliliter.
To test the apparent affinity of the synthetic peptides for mAb 1H11, the OSTEOMARK assay was run using OSTEOMARK kits and components, including monoclonal antibody 1H11. A standard curve was run using OSTEOMARK calibrators. Peptide samples were generally tested at 10, 3, 1, and down to 0.01 μG per mL. The standard OSTEOMARK curve was generated using a four parameter logistic curve fit program (MedData Inc., N.Y., N.Y.). Peptide values were back fit into the standard curve and values were reported in picomoles Bone Collagen Equivalents (BCE)/mL (which equals nanomolar BCE, or nM BCE).
Values in the Table are reported as the number of nanomoles of BCE equivalent to a microgram of a given peptide. Antibody binding values below 500 nMole BCE were considered to be commercially insignificant.

SMILES	Results: peptide binding to mAb 1H11, 1 μg synthetic peptide = X nmole BCE
CC(C)[C@H](NC(=O)CNC(=O)[C@H](C)NC(=O)CNC(=O)[C@H](CC(=O)O)NC(=O)[C@H](Cc1ccc(O)cc1)NC(=O)[C@@H]1CCC(=O)N1)C(=O)NCC(=O)O [SEQ ID NO:1, J Y D G A G V G] ([pGlu]YDGAGVG-OH)	483 nmole BCE
CC(C)[C@H](NC(=O)CNC(=O)[C@H](CCC(=O)O)NC(=O)CNC(=O)[C@H](CC(=O)O)NC(=O)[C@H](Cc1ccc(O)cc1)NC(=O)[C@@H]1CCC(=O)N1)C(=O)NCC(=O)O [SEQ ID NO:4, J Y D G E G V G] ([pGlu]YDGEGVG-OH)	2400 nmole BCE
CC(C)[C@H](NC(=O)CNC(=O)[C@H](Cc1ccccc1)NC(=O)CNC(=O)[C@H](CC(=O)O)NC(=O)[C@H](Cc1ccc(O)cc1)NC(=O)[C@@H]1CCC(=O)N1)C(=O)NCC(=O)O [SEQ ID NO:5, J Y D G F G V G] ([pGlu]YDGFGVG-OH)	365 nmole BCE
CC(C)[C@H](NC(=O)CNC(=O)CNC(=O)CNC(=O)[C@H](CC(=O)O)NC(=O)[C@H](Cc1ccc(O)cc1)NC(=O)[C@@H]1CCC(=O)N1)C(=O)NCC(=O)O [SEQ ID NO:6, J Y D G G G V G] ([pGlu]YDGGGVG-OH)	114 nmole BCE
CC(C)[C@H](NC(=O)CNC(=O)[C@H](Cc1c[nH]cn1)NC(=O)CNC(=O)[C@H](CC(=O)O)NC(=O)[C@H](Cc1ccc(O)cc1)NC(=O)[C@@H]1CCC(=O)N1)C(=O)NCC(=O)O [SEQ ID NO:7, J Y D G H G V G] ([pGlu]YDGHGVG-OH)	650 nmole BCE
CC[C@H](C)[C@H](NC(=O)CNC(=O)[C@H](CC(=O)O)NC(=O)[C@H](Cc1ccc(O)cc1)NC(=O)[C@@H]1CCC(=O)N1)C(=O)NCC(=O)N[C@H](C(=O)NCC(=O)O)C(C)C [SEQ ID NO:8, J Y D G I G V G] ([pGlu]YDGIGVG-OH)	250 nmole BCE
CC(C)C[C@H](NC(=O)CNC(=O)[C@H](CC(=O)O)NC(=O)[C@H](Cc1ccc(O)cc1)NC(=O)[C@@H]1CCC(=O)N1)C(=O)NCC(=O)N[C@H](C(=O)NCC(=O)O)C(C)C [SEQ ID NO:10, J Y D G L G V G] ([pGlu]YDGLGVG-OH)	230 nmole BCE
CSCC[C@H](NC(=O)CNC(=O)[C@H](CC(=O)O)NC(=O)[C@H](Cc1ccc(O)cc1)NC(=O)[C@@H]1CCC(=O)N1)C(=O)NCC(=O)N[C@H](C(=O)NCC(=O)O)C(C)C [SEQ ID NO:11, J Y D G M G V G] ([pGlu]YDGMGVG-OH)	183 nmole BCE
CC(C)[C@H](NC(=O)CNC(=O)[C@H](CC(N)=O)NC(=O)CNC(=O)[C@H](CC(=O)O)NC(=O)[C@H](Cc1ccc(O)cc1)NC(=O)[C@@H]1CCC(=O)N1)C(=O)NCC(=O)O [SEQ ID NO:12, J Y D G N G V G] ([pGlu]YDGNGVG-OH)	135 nmole BCE
CC(C)[C@H](NC(=O)CNC(=O)[C@@H]1CCCN1C(=O)CNC(=O)[C@H](CC(=O)O)NC(=O)[C@H](Cc1ccc(O)cc1)NC(=O)[C@@H]1CCC(=O)N1)C(=O)NCC(=O)O [SEQ ID NO:13, J Y D G P G V G] ([pGlu]YDGPGVG-OH)	2056 nmole BCE
CC(C)[C@H](NC(=O)CNC(=O)[C@H](CCC(N)=O)NC(=O)CNC(=O)[C@H](CC(=O)O)NC(=O)[C@H](Cc1ccc(O)cc1)NC(=O)[C@@H]1CCC(=O)N1)C(=O)NCC(=O)O [SEQ ID NO:14, J Y D G Q G V G] ([pGlu]YDGQGVG-OH)	148 nmole BCE
CC(C)[C@H](NC(=O)CNC(=O)[C@H](CCCNC(=N)N)NC(=O)CNC(=O)[C@H](CC(=O)O)NC(=O)[C@H](Cc1ccc(O)cc1)NC(=O)[C@@H]1CCC(=O)N1)C(=O)NCC(=O)O [SEQ ID NO:15, J Y D G R G V G] ([pGlu]YDGRGVG-OH)	23 nmole BCE
CC(C)[C@H](NC(=O)CNC(=O)[C@H](CO)NC(=O)CNC(=O)[C@H](CC(=O)O)NC(=O)[C@H](Cc1ccc(O)cc1)NC(=O)[C@@H]1CCC(=O)N1)C(=O)NCC(=O)O [SEQ ID NO:16, J Y D G S G V G] ([pGlu]YDGSGVG-OH)	30 nmole BCE
CC(C)[C@H](NC(=O)CNC(=O)[C@@H](NC(=O)CNC(=O)[C@H](CC(=O)O)NC(=O)[C@H](Cc1ccc(O)cc1)NC(=O)[C@@H]1CCC(=O)N1)[C@@H](C)O)C(=O)NCC(=O)O [SEQ ID NO:17, J Y D G T G V G] ([pGlu]YDGTGVG-OH)	252 nmole BCE
CC(C)[C@H](NC(=O)CNC(=O)[C@H](CC(=O)O)NC(=O)[C@H](Cc1ccc(O)cc1)NC(=O)[C@@H]1CCC(=O)N1)C(=O)NCC(=O)N[C@H](C(=O)NCC(=O)O)C(C)C [SEQ ID NO:18, J Y D G V G V G] ([pGlu]YDGVGVG-OH)	400 nmole BCE
CC(C)[C@H](NC(=O)CNC(=O)[C@H](Cc1c[nH]c2ccccc12)NC(=O)CNC(=O)[C@H](CC(=O)O)NC(=O)[C@H](Cc1ccc(O)cc1)NC(=O)[C@@H]1CCC(=O)N1)C(=O)NCC(=O)O [SEQ ID NO:19, J Y D G W G V G] ([pGlu]YDGWGVG-OH)	1300 nmole BCE
CC(C)[C@H](NC(=O)CNC(=O)[C@H](Cc1ccc(O)cc1)NC(=O)CNC(=O)[C@H](CC(=O)O)NC(=O)[C@H](Cc1ccc(O)cc1)NC(=O)[C@@H]1CCC(=O)N1)C(=O)NCC(=O)O [SEQ ID NO:20, J Y D G Y G V G] ([pGlu]YDGYGVG-OH)	104 nmole BCE
CC(C)[C@H](NC(=O)CNC(=O)[C@H](CS(=O)(=O)O)NC(=O)CNC(=O)[C@H](CC(=O)O)NC(=O)[C@H](Cc1ccc(O)cc1)NC(=O)[C@@H]1CCC(=O)N1)C(=O)NCC(=O)O [SEQ ID NO:26, j Y D G X^2 G V G] ([pGlu]YDG[Cya]GVG-OH)	1000 nmole BCE
CC(C)[C@H](NC(=O)CNC(=O)[C@H](CCC(=O)O)NC(=O)[C@H](C)NC(=O)[C@H](CC(=O)O)NC(=O)[C@H](Cc1ccc(O)cc1)NC(=O)[C@@H]1CCC(=O)N1)C(=O)NCC(=O)O [SEQ ID NO:27, J Y D A E G V G] ([pGlu]YDAEGVG-OH)	< 50 nmole BCE

same assay, conditions: nanomoles Bone Collagen Equivalents equivalent to 1 μg peptide; back fit into OSTEOMARK standard curve; values between 0.5 and 1 OD averaged; listed as 3

SMILES	Results: peptide binding to mAb 1H11, 1 μg synthetic peptide = X nmole BCE
CC(C)[C@H](NC(=O)CNC(=O)[C@H](CC(=O)O)NC(=O)CNC(=O)[C@H](CC(=O)O)NC(=O)[C@H](Cc1ccc(O)cc1)NC(=O)[C@@H]1CCC(=O)N1)C(=O)NCC(=O)O [SEQ ID NO:3, J Y D G D G V G] ([pGlu]YDGDGVG-OH)	1840 nmole BCE

same assay, conditions: synthetic peptide, antibody inhibition assay

SMILES	binding to mAb 1H11 (in words)
CC(C)[C@H](NC(=O)CNC(=O)[C@H](CCC(=O)O)NC(=O)CNC(=O)[C@H](CC(=O)O)NC(=O)[C@H](Cc1ccc(O)cc1)NC(=O)[C@@H](N)CCC(=O)O)C(=O)NCC(=O)O [EYDGEGVG] (H-EYDGEGVG-OH)	not recognized
CC(C)[C@H](NC(=O)CNC(=O)[C@H](CCC(=O)O)NC(=O)CNC(=O)[C@H](CC(=O)O)NC(=O)[C@H](Cc1ccc(O)cc1)NC(=O)[C@@H]1CCC(=O)N1)C(=O)NCC(=O)O [SEQ ID NO:4, J Y D G E G V G] ([pGlu]YDGEGVG-OH)	Improved binding
CC(C)[C@H](NC(=O)CNC(=O)[C@H](Cc1c[nH]cn1)NC(=O)CNC(=O)[C@H](CC(=O)O)NC(=O)[C@H](Cc1ccc(O)cc1)NC(=O)[C@@H]1CCC(=O)N1)C(=O)NCC(=O)O [SEQ ID NO:7, J Y D G H G V G] ([pGlu]YDGHGVG-OH)	more limited degree of 1H11 binding
CC(C)[C@H](NC(=O)CNC(=O)[C@H](CCC(=O)O)NC(=O)[C@H](C)NC(=O)[C@H](CC(=O)O)NC(=O)[C@H](Cc1ccc(O)cc1)NC(=O)[C@@H]1CCC(=O)N1)C(=O)NCC(=O)O [SEQ ID NO:27, J Y D A E G V G] ([pGlu]YDAEGVG-OH)	substantially eliminates mAb 1H11 binding affinity

same assay, conditions: synthetic peptide, antibody inhibition assay; listed as Gln-Tyr-Asp-Gly-Glu-Gly-Val-Gly

SMILES	binding to mAb 1H11 (in words)
CC(C)[C@H](NC(=O)CNC(=O)[C@H](CCC(=O)O)NC(=O)CNC(=O)[C@H](CC(=O)O)NC(=O)[C@H](Cc1ccc(O)cc1)NC(=O)[C@@H]1CCC(=O)N1)C(=O)NCC(=O)O [SEQ ID NO:4, J Y D G E G V G] ([pGlu]YDGEGVG-OH)	comparable to that of the cross-linked NTx antigen

Reference: US5817755A, “Synthetic peptide analogs of cross-linked N-telopeptides of type I collagen” (Washington Research Foundation, priority 1997, dated 1998)
